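The compound was tested at five concentrations on cells cultured in 96-well plates, with a 48-hour exposure period. GI50: concentration for 50% inhibition of growth. The concentration for full growth arrest is given as TGI.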

The values below come from PubChem BioAssay (NCI).

Among the test systems are SK-MEL-28 melanoma; HOP-62 NSCLC; SNB-75 CNS; HS 578T breast; EKVX NSCLC; SK-MEL-2 melanoma; TK-10 renal; HCT-116 colon; HCT-15 colon; CAKI-1 renal.
Assay in all cases: NCI-60 cell line screen, 48 h

Take `O=c1cc(-c2ccncc2)[nH]c2cc3c(cc12)OCO3`: the TGI in the assay with SK-MEL-28 melanoma, in the assay on HOP-62 NSCLC, in the assay with SNB-75 CNS, in the assay on HS 578T breast, with EKVX NSCLC and with SK-MEL-2 melanoma was over 100 µM each time. The TGI in the assay on TK-10 renal, in the assay on HCT-116 colon and with HCT-15 colon was over 100 µM throughout.
As to `Cn1c(=O)c2c(nc3n(Cc4ccccc4)c(=O)c(NCCCBr)cn23)n(C)c1=O`, the TGI with SK-MEL-28 melanoma is over 100 µM; in the assay with HOP-62 NSCLC, over 100 µM; in the assay on SNB-75 CNS, 97.7 µM; with HS 578T breast, over 100 µM; in the assay with EKVX NSCLC, over 100 µM; in the assay on SK-MEL-2 melanoma, over 100 µM. For the same molecule, the TGI in the assay on TK-10 renal, in the assay on HCT-116 colon, in the assay with CAKI-1 renal and with HCT-15 colon was over 100 µM in each case.
For the molecule `COc1ccccc1C1Nn2c(nc3ccccc3c2=O)N1c1ccc(C)cc1` (stereo unspecified), the TGI with SK-MEL-28 melanoma was determined as 20.3 µM; in the assay on HOP-62 NSCLC, 20.2 µM; in the assay with SNB-75 CNS it was 30.5 µM; in the assay with HS 578T breast, 27.9 µM; with EKVX NSCLC, 34.6 µM; with SK-MEL-2 melanoma, 25.3 µM. Also, the TGI was found to be 22.7 µM with TK-10 renal, 16 µM with HCT-116 colon, 24.1 µM with CAKI-1 renal and 16.9 µM in the assay with HCT-15 colon.
Take `COc1cccc2c1C(=O)c1c(O)c3c(c(O)c1C2=O)C[C@H](O)C[C@@H]3OC1CC(N)C(O)C(C)O1` (stereo partly specified): the TGI in the assay with SK-MEL-28 melanoma was determined as 9.13 µM; in the assay on HOP-62 NSCLC, 10.5 µM; with SNB-75 CNS, 15.3 µM; in the assay on HS 578T breast, 5.97 µM; in the assay with EKVX NSCLC, 20.8 µM; in the assay with SK-MEL-2 melanoma it was 5.41 µM. Besides, the TGI worked out at 7.15 µM with TK-10 renal, 7.88 µM in the assay on HCT-116 colon, 4.83 µM in the assay on CAKI-1 renal and 58 µM in the assay with HCT-15 colon.
As for `CCn1c2ccc(C(=O)CCCN3CCCCC3)cc2c2cc(C(=O)CCCN3CCCCC3)ccc21`, the TGI in the assay on SK-MEL-28 melanoma was determined as 34.8 µM; with HOP-62 NSCLC, 18.2 µM; with SNB-75 CNS, 8.26 µM; in the assay with HS 578T breast, 7.06 µM; with EKVX NSCLC, 15.8 µM; in the assay on SK-MEL-2 melanoma, 3.52 µM. The TGI was 15.9 µM in the assay with TK-10 renal, 10.8 µM in the assay on HCT-116 colon, 8.54 µM with CAKI-1 renal and 5.45 µM in the assay with HCT-15 colon.
For the molecule `c1ccc2c(c1)Sc1nccc3ccnc-2c13`, the TGI was over 100 µM in the assay with SK-MEL-28 melanoma; over 100 µM in the assay with HOP-62 NSCLC; 58.7 µM in the assay on SNB-75 CNS; 65.3 µM with HS 578T breast; over 100 µM in the assay with EKVX NSCLC; over 100 µM in the assay on SK-MEL-2 melanoma. The TGI was over 100 µM in the assay on TK-10 renal, over 100 µM with HCT-116 colon and 41 µM with CAKI-1 renal.
For `CCCCC1=C(C(=O)N2CCOCC2)C2(OCCO2)C1=O`, the TGI with SK-MEL-28 melanoma was 94.8 µM; with HOP-62 NSCLC it was 54.1 µM; in the assay on SNB-75 CNS it was over 100 µM; in the assay on HS 578T breast it was over 100 µM; with EKVX NSCLC it was over 100 µM; with SK-MEL-2 melanoma it was 71.7 µM. The TGI is over 100 µM in the assay on TK-10 renal, 48.6 µM with HCT-116 colon, 78.1 µM in the assay with CAKI-1 renal and 40.3 µM with HCT-15 colon.
Turning to `CC(C)(C)OC(=O)NC(Cc1ccccc1)NC(=O)NC(=O)OCc1ccccc1` (stereo unspecified), the TGI with SK-MEL-28 melanoma was over 100 µM; with HOP-62 NSCLC, over 100 µM; in the assay on SNB-75 CNS it was 73.2 µM; in the assay with HS 578T breast, over 100 µM; in the assay on EKVX NSCLC, over 100 µM; in the assay on SK-MEL-2 melanoma it was over 100 µM. In addition, the TGI in the assay on TK-10 renal is over 100 µM; in the assay on HCT-116 colon it was over 100 µM; in the assay on CAKI-1 renal, 64.1 µM; in the assay with HCT-15 colon, over 100 µM.
As to `CC(=O)OCC1OC(n2c(-c3ccccc3)c(N=Nc3ccccc3)c(C)c(C#N)c2=S)C(OC(C)=O)C(OC(C)=O)C1OC(C)=O` (stereo unspecified), the TGI with SK-MEL-28 melanoma, with HOP-62 NSCLC, in the assay on SNB-75 CNS, with HS 578T breast, in the assay on SK-MEL-2 melanoma and in the assay on TK-10 renal was over 100 µM each time. For the same molecule, the TGI in the assay on HCT-116 colon, in the assay on CAKI-1 renal and in the assay on HCT-15 colon was over 100 µM throughout.
In the case of `C=C1N(C=O)C(C)(C)N(O)C1(C)C`, the TGI with SK-MEL-28 melanoma, in the assay on HOP-62 NSCLC, in the assay with SNB-75 CNS, with HS 578T breast, in the assay on EKVX NSCLC and in the assay on SK-MEL-2 melanoma was over 100 µM in each case. Besides, the TGI in the assay on TK-10 renal, in the assay on HCT-116 colon, in the assay with CAKI-1 renal and with HCT-15 colon was over 100 µM throughout.
As for `CN(C)CCCNC(=O)c1cc(NC(=O)c2cc(NC(=O)CCCn3c4ccccc4c4ccccc43)cn2C)cn1C`, the TGI was 92 µM with SK-MEL-28 melanoma; 30.9 µM with HOP-62 NSCLC; 39.1 µM in the assay on SNB-75 CNS; 49.7 µM with HS 578T breast; 46.2 µM with EKVX NSCLC; over 79.9 µM in the assay with SK-MEL-2 melanoma. Besides, the TGI in the assay with TK-10 renal was 39.3 µM; in the assay on HCT-116 colon it was 13.8 µM; in the assay on CAKI-1 renal it was 43.5 µM; in the assay with HCT-15 colon it was over 75.5 µM.
On to `CC1C(NNc2ccccc2)Oc2cc3c(cc2C1c1ccccc1O)OCO3` (stereo unspecified), for which the TGI stood at 26.6 µM with SK-MEL-28 melanoma; 16.2 µM with HOP-62 NSCLC; 23.6 µM with SNB-75 CNS; 42.7 µM with HS 578T breast; 23.3 µM in the assay with EKVX NSCLC; 25.6 µM with SK-MEL-2 melanoma. Further, the TGI with TK-10 renal is 18.3 µM; with HCT-116 colon it was 18.7 µM; in the assay with CAKI-1 renal it was 13.7 µM; in the assay on HCT-15 colon, 15.2 µM.
As to `Nc1nc(Cl)cc(NCC2(O)CC2)n1`, the TGI with SK-MEL-28 melanoma, in the assay on HOP-62 NSCLC, in the assay with SNB-75 CNS, with HS 578T breast, in the assay on EKVX NSCLC and in the assay with SK-MEL-2 melanoma was over 100 µM each time. For the same molecule, the TGI in the assay on TK-10 renal, in the assay on HCT-116 colon, in the assay with CAKI-1 renal and in the assay with HCT-15 colon was over 100 µM throughout.
`O=C1C=CC(=O)c2c(O)c(N3CCC[C@H]3CO)c(Cl)c(O)c21`: the TGI is 2.23 µM in the assay with SK-MEL-28 melanoma; over 10 µM in the assay with HOP-62 NSCLC; over 10 µM in the assay on SNB-75 CNS; over 8.27 µM in the assay with HS 578T breast; over 10 µM with EKVX NSCLC; 5.53 µM with SK-MEL-2 melanoma. Further, the TGI is 5.57 µM in the assay on TK-10 renal, 3.3 µM with HCT-116 colon, 3.57 µM with CAKI-1 renal and 4.15 µM in the assay with HCT-15 colon.
With `CC1CCC2(NC1)OC1CC3C4CC=C5CC(OC6OC(CO)C(OC7OC(C)C(O)C(O)C7O)C(O)C6OC6OC(C)C(O)C(O)C6O)CCC5(C)C4CCC3(C)C1C2C` (stereo unspecified), the TGI is 4.41 µM with SK-MEL-28 melanoma; over 100 µM in the assay with HOP-62 NSCLC; 5.87 µM in the assay with SNB-75 CNS; 15.6 µM in the assay on HS 578T breast; 6.4 µM with EKVX NSCLC; 9.07 µM in the assay on SK-MEL-2 melanoma. Moreover, the TGI was 15.1 µM with TK-10 renal, 4.91 µM in the assay with HCT-116 colon, 8.66 µM in the assay on CAKI-1 renal and 16.9 µM with HCT-15 colon.
In the case of `CN1C(=O)N(C)C(O)C(Cl)(Br)C1=O` (stereo unspecified), the TGI in the assay on SK-MEL-28 melanoma, in the assay with SNB-75 CNS, in the assay with HS 578T breast, with EKVX NSCLC, in the assay with SK-MEL-2 melanoma and in the assay with TK-10 renal was over 100 µM each time. The TGI with HCT-116 colon, in the assay with CAKI-1 renal and in the assay with HCT-15 colon was over 100 µM in each case.
Consider `CCOc1ccc(Nc2nc(N)nc(N)c2N)cc1`, for which the TGI in the assay with SK-MEL-28 melanoma was over 100 µM; with HOP-62 NSCLC, 79 µM; in the assay on SNB-75 CNS, 70.5 µM; in the assay with HS 578T breast, 45.7 µM; with EKVX NSCLC, over 100 µM; in the assay on SK-MEL-2 melanoma, over 100 µM. In addition, the TGI was over 100 µM in the assay with TK-10 renal, over 100 µM in the assay with HCT-116 colon, 70.3 µM in the assay with CAKI-1 renal and over 100 µM in the assay with HCT-15 colon.
In the case of `COc1cc(C(=O)Oc2ccc3c(c2)OCO3)cc(OC)c1OC`, the TGI in the assay with SK-MEL-28 melanoma, in the assay with HOP-62 NSCLC, in the assay with SNB-75 CNS, with HS 578T breast, in the assay on SK-MEL-2 melanoma and with TK-10 renal was over 100 µM in each case. For the same molecule, the TGI in the assay on CAKI-1 renal and in the assay with HCT-15 colon was over 100 µM throughout.
With `COc1cc(-c2n/c(=C\c3c(O)[nH]c4ccc(Cl)cc34)cc3c2=Nc2ccccc2-3)ccc1F`, the GI50 was 2.27 µM with SK-MEL-28 melanoma; 1.17 µM with HOP-62 NSCLC; 1.69 µM in the assay on SNB-75 CNS; 2.07 µM in the assay with HS 578T breast; 4.12 µM in the assay with EKVX NSCLC; 2.51 µM with TK-10 renal. Moreover, the GI50 was 1.75 µM in the assay on HCT-116 colon, 2.55 µM with CAKI-1 renal and 2.49 µM in the assay on HCT-15 colon. Besides, the TGI worked out at 5.02 µM in the assay on SK-MEL-28 melanoma; 2.52 µM in the assay with HOP-62 NSCLC; 4.6 µM with SNB-75 CNS; 5.92 µM with HS 578T breast; 27.2 µM in the assay with EKVX NSCLC; 4.43 µM with TK-10 renal. Moreover, the values for the TGI with HCT-116 colon, with CAKI-1 renal and with HCT-15 colon were 3.34 µM, 8.66 µM and 6.98 µM, respectively.
As for `COc1ccc(/C=c2\s/c(=C3/SC(=S)N(c4ccccc4)C3=O)n(-c3ccccc3)c2=O)cc1`, the TGI with SK-MEL-28 melanoma is over 100 µM; with HOP-62 NSCLC it was 69.9 µM; in the assay on SNB-75 CNS it was 21.4 µM; in the assay on HS 578T breast, 74 µM; in the assay with EKVX NSCLC, over 100 µM; with TK-10 renal it was 59.2 µM. Further, the TGI in the assay with HCT-116 colon, in the assay on CAKI-1 renal and in the assay with HCT-15 colon was over 100 µM in each case.
